Tested on: Stress protein genes
Test: DNA chip mRNA expression in yeast, stress protein genes (Table 6)
Format: cell-based, Saccharomyces cerevisiae S288C
Protocol: Yeast (Saccharomyces cerevisiae S288C (α SUC2mal mel gap2 CUP1)) were incubated at 25° C. on YPD medium (yeast extract 1%, polypepton 2%, glucose 2%). One of toxic chemical substances was added to the cells at logarithmic growth phase, and the cells were further incubated for two hours. Cells were cultured without any chemical substance in the same condition, and were used as control. Concentrations of the chemical substances were defined to inhibit the growth of the yeast but not lead to death.
After completion of the incubation, the culture was centrifuged to collect the cells. To the cells, sodium acetate buffer (50 mM sodium acetate, 10 mM EDTA, 1% SDS) was added, and the mixture was shaken at 65° C. for five minutes, followed by returning to room temperature, and obtaining the supernatant, of which the procedures were repeated two times. To the supernatant, ½ amount of a solution of phenol/chloroform was added, and the mixture was centrifuged to give a supernatant, which was added with an equal amount of chloroform, and the mixture was centrifuged to give a supernatant. To the supernatant, an equal amount of isopropanol containing 0.3 M sodium acetate was added, and the mixture was allowed to stand at room temperature for 30 minutes, after which the mixture was centrifuged to give a sediment of the whole RNAs. Seventy % ethanol was added to the sediment, and the mixture was again centrifuged to give a sediment, which was then dried and dissolved in water. mRNA was isolated from the whole RNAs as followings. In view of the fact that a poly A chain is attached to the 3′ terminus of mRNA, a polynucleotide having a poly T structure which was immobilized on the surface of latex beads was used to trap the mRNA, and then the mRNA was washed and eluted with spine column (Oligotex-dT30<Super>mRNA Purification Kit, Takara). Reverse transcription of the mRNA was conducted with a reverse transcriptase (Super Script II Reverse Transcriptase; catalogue No. 18064-014, GibcoBRL) using fluorescence-labeled nucleotides to give cDNAs that were introduced with Cy3-dUTP or Cy5-dUTP during the reverse transcription.
The labeled cDNAs were dissolved in TE buffer (10mM Tris-HCl/1 mM EDTA, pH8.0), and the solution was dropped on the DNA chip containing the whole genes of yeast (DNA Chip Research Inc. Japan) so that the cDNAs were hybridized on the DNA chip at 65° C. for over 12 hours. The fluoresces intensity of the DNA chip was read with a scanner, and the ratio relative to the fluorescence intensity resulting from the absence of chemical substance was estimated as the following, which is shown in Tables 1 to 9: […]

Structure (SMILES): [Cl][Cd][Cl] [(2), CdCl2]
- The level of expressed mRNA in the presence of chemical substance/The level of expressed mRNA in the absence of chemical substance (yeast gene YAL005C): 1.6
- The level of expressed mRNA in the presence of chemical substance/The level of expressed mRNA in the absence of chemical substance (yeast gene YAL015C): 1.1
- The level of expressed mRNA in the presence of chemical substance/The level of expressed mRNA in the absence of chemical substance (yeast gene YBL075C): 4.3
- The level of expressed mRNA in the presence of chemical substance/The level of expressed mRNA in the absence of chemical substance (yeast gene YBL093C): 2.0
- The level of expressed mRNA in the presence of chemical substance/The level of expressed mRNA in the absence of chemical substance (yeast gene YBR044C): 1.4
- The level of expressed mRNA in the presence of chemical substance/The level of expressed mRNA in the absence of chemical substance (yeast gene YBR054W): 1.8
- The level of expressed mRNA in the presence of chemical substance/The level of expressed mRNA in the absence of chemical substance (yeast gene YBR067C): 2.5
- The level of expressed mRNA in the presence of chemical substance/The level of expressed mRNA in the absence of chemical substance (yeast gene YBR072W): 17.4
- The level of expressed mRNA in the presence of chemical substance/The level of expressed mRNA in the absence of chemical substance (yeast gene YBR126C): 1.9
- The level of expressed mRNA in the presence of chemical substance/The level of expressed mRNA in the absence of chemical substance (yeast gene YBR169C): 2.1
- The level of expressed mRNA in the presence of chemical substance/The level of expressed mRNA in the absence of chemical substance (yeast gene YCL035C): 2.3
- The level of expressed mRNA in the presence of chemical substance/The level of expressed mRNA in the absence of chemical substance (yeast gene YCR021C): 1.4
- The level of expressed mRNA in the presence of chemical substance/The level of expressed mRNA in the absence of chemical substance (yeast gene YCR060W): 0.7
- The level of expressed mRNA in the presence of chemical substance/The level of expressed mRNA in the absence of chemical substance (yeast gene YCR083W): 2.8
- The level of expressed mRNA in the presence of chemical substance/The level of expressed mRNA in the absence of chemical substance (yeast gene YDL022W): 2.6
- The level of expressed mRNA in the presence of chemical substance/The level of expressed mRNA in the absence of chemical substance (yeast gene YDL025C): 5.0
- The level of expressed mRNA in the presence of chemical substance/The level of expressed mRNA in the absence of chemical substance (yeast gene YDR033W): 1.3
- The level of expressed mRNA in the presence of chemical substance/The level of expressed mRNA in the absence of chemical substance (yeast gene YDR077W): 1.0
- The level of expressed mRNA in the presence of chemical substance/The level of expressed mRNA in the absence of chemical substance (yeast gene YDR098C): 1.4
- The level of expressed mRNA in the presence of chemical substance/The level of expressed mRNA in the absence of chemical substance (yeast gene YDR155C): 1.5
- The level of expressed mRNA in the presence of chemical substance/The level of expressed mRNA in the absence of chemical substance (yeast gene YDR258C): 2.3
- The level of expressed mRNA in the presence of chemical substance/The level of expressed mRNA in the absence of chemical substance (yeast gene YDR293C): 0.9
- The level of expressed mRNA in the presence of chemical substance/The level of expressed mRNA in the absence of chemical substance (yeast gene YDR436W): 0.9
- The level of expressed mRNA in the presence of chemical substance/The level of expressed mRNA in the absence of chemical substance (yeast gene YDR513W): 2.5
- The level of expressed mRNA in the presence of chemical substance/The level of expressed mRNA in the absence of chemical substance (yeast gene YDR519W): 3.2
- The level of expressed mRNA in the presence of chemical substance/The level of expressed mRNA in the absence of chemical substance (yeast gene YEL030W): 0.9
- The level of expressed mRNA in the presence of chemical substance/The level of expressed mRNA in the absence of chemical substance (yeast gene YEL039C): 0.7
- The level of expressed mRNA in the presence of chemical substance/The level of expressed mRNA in the absence of chemical substance (yeast gene YER042W): 2.2
- The level of expressed mRNA in the presence of chemical substance/The level of expressed mRNA in the absence of chemical substance (yeast gene YER057C): 2.0
- The level of expressed mRNA in the presence of chemical substance/The level of expressed mRNA in the absence of chemical substance (yeast gene YER103W): 2.1
- The level of expressed mRNA in the presence of chemical substance/The level of expressed mRNA in the absence of chemical substance (yeast gene YER125W): 1.1
- The level of expressed mRNA in the presence of chemical substance/The level of expressed mRNA in the absence of chemical substance (yeast gene YFL014W): 5.1
- The level of expressed mRNA in the presence of chemical substance/The level of expressed mRNA in the absence of chemical substance (yeast gene YFL016C): 1.0
- The level of expressed mRNA in the presence of chemical substance/The level of expressed mRNA in the absence of chemical substance (yeast gene YFL020C): 1.1
- The level of expressed mRNA in the presence of chemical substance/The level of expressed mRNA in the absence of chemical substance (yeast gene YFR052W): 1.6
- The level of expressed mRNA in the presence of chemical substance/The level of expressed mRNA in the absence of chemical substance (yeast gene YGL073W): 2.1
- The level of expressed mRNA in the presence of chemical substance/The level of expressed mRNA in the absence of chemical substance (yeast gene YGL115W): 0.6
- The level of expressed mRNA in the presence of chemical substance/The level of expressed mRNA in the absence of chemical substance (yeast gene YGL181W): 0.9
- The level of expressed mRNA in the presence of chemical substance/The level of expressed mRNA in the absence of chemical substance (yeast gene YGR088W): 1.2
- The level of expressed mRNA in the presence of chemical substance/The level of expressed mRNA in the absence of chemical substance (yeast gene YHL028W): 0.8
- The level of expressed mRNA in the presence of chemical substance/The level of expressed mRNA in the absence of chemical substance (yeast gene YHL046C): 1.7
- The level of expressed mRNA in the presence of chemical substance/The level of expressed mRNA in the absence of chemical substance (yeast gene YHR030C): 0.8
- The level of expressed mRNA in the presence of chemical substance/The level of expressed mRNA in the absence of chemical substance (yeast gene YHR057C): 1.2
- The level of expressed mRNA in the presence of chemical substance/The level of expressed mRNA in the absence of chemical substance (yeast gene YHR104W): 4.1
- The level of expressed mRNA in the presence of chemical substance/The level of expressed mRNA in the absence of chemical substance (yeast gene YIL011W): 0.5

From patent US8192962B2, “Processes for detecting toxic substances” (Daikin Industries, Ltd., priority 2001, dated 2012)
